Common to all, as to experiment: NCI anticancer screen, dose series, 48 h
In assay [1] the test system is SR.
Assay [2] deals with HCT-15.
Assay [3] has as its system PC-3.
The subject of assay [4] is MCF7.
The test system of assay [5] is SK-MEL-2.
Assay [6] deals with HT-29.
Assay [7] concerns 786-0.
Assay [8] concerns MDA-MB-231.
Assay [9] has as its system HOP-92.
Assay [10] concerns SW-620.
The subject of assay [11] is NCI-H23.
Assay [12] relates to NCI-H226.
The subject of assay [13] is OVCAR-4.
The test system of assay [14] is M14.
Assay [15] deals with NCI-H522.
Assay [16] concerns SN12C.
The subject of assay [17] is HL-60.
The test system of assay [18] is MDA-MB-435.
Assay [19] relates to NCI/ADR-RES.

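Each compound was tested at five concentrations against cells in 96-well plates for 48 hours. The concentration for 50% growth inhibition is given as GI50.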 The source made the active and inactive calls. Rule as the data show it: active = GI50 up to about 1.1 µM and inactive = higher.

Take `Nc1cc(C2CCCc3c2[nH]c2ccccc32)ccc1O` (configuration not stated): the GI50 in [1] is 4.48 µM (inactive); in assay [2] it was 55.3 µM; in assay [3], 38.5 µM (inactive); in [4], 24.8 µM (inactive); in [5], 31.9 µM (inactive); in [6], 23.4 µM (inactive). In addition, the GI50 is 15.3 µM (inactive) in assay [7]; 84.5 µM (inactive) in assay [8]; 56.8 µM (inactive) in assay [9]; 23.6 µM (inactive) in assay [10]; 36.5 µM (inactive) in assay [11]; 55.3 µM (inactive) in [12]. Moreover, the GI50 in assay [13] was 16.9 µM (inactive); in assay [14], 6.19 µM (inactive); in [15] it was 20.1 µM (inactive); in assay [16], 65.2 µM (inactive); in [17], 14.2 µM (inactive); in assay [18] it was 12.3 µM (inactive). In assay [19], the GI50 was 22 µM (inactive).

Take `CSc1ncc2c(n1)-c1ccccc1OC2N1CCCCC1` (configuration not stated): the GI50 in [1] was 18 µM (inactive); in [2], 28.9 µM; in assay [3], 48.2 µM (inactive); in assay [4], 23.8 µM (inactive); in assay [5], 25.9 µM (inactive); in assay [6] it was 25.4 µM (inactive). Besides, the GI50 in assay [7] was 29.4 µM (inactive); in [8] it was 23 µM (inactive); in [9], 25 µM (inactive); in [10], 40.5 µM (inactive); in assay [11] it was 41.7 µM (inactive); in [12], 32 µM (inactive). Moreover, the GI50 in assay [13] was 28.8 µM (inactive); in assay [14], 49.3 µM (inactive); in assay [15], 18.9 µM (inactive); in assay [16] it was 29.8 µM (inactive); in assay [17], 19.7 µM (inactive); in assay [18], 31.1 µM (inactive). Further, the GI50 in [19] was 40.6 µM (inactive).

As for `O=C(NNC(=O)c1ccccc1S)c1ccccc1S` [BIS(THIOSALICYL)HYDRAZIDE], the GI50 is 13.5 µM (inactive) in assay [1]; 6.03 µM in assay [2]; 32.1 µM (inactive) in assay [3]; 10 µM (inactive) in assay [4]; 43.9 µM (inactive) in [5]; 8.47 µM (inactive) in [6]. Besides, the GI50 is 9.42 µM (inactive) in assay [7]; > 25 µM (inactive) in assay [8]; > 25 µM (inactive) in assay [9]; 11.6 µM (inactive) in [10]; 11.1 µM (inactive) in [11]; 15.5 µM (inactive) in [12]. The GI50 was 15.6 µM (inactive) in assay [13]; 10.3 µM (inactive) in assay [14]; 0.0154 µM (active) in assay [15]; 13.6 µM (inactive) in assay [16]; 8.79 µM (inactive) in assay [17]; 14.6 µM (inactive) in assay [18]. Also, the GI50 in assay [19] was 11.3 µM (inactive).

As for `O=C1OCC2OC(=O)c3cc(O)c(O)c(O)c3-c3c(O)c(O)c(O)c4c3C(=O)OC(C2OC(=O)c2cc(O)c(O)c(O)c2-c2c1cc(O)c(O)c2O)C1OC(=O)C2C4=C(O)C(=O)C23Oc2cc(O)c4c(c2[C@H]13)O[C@H](c1ccc(O)c(O)c1)[C@@H](O)C4` (some centres not stated), the GI50 in assay [1] is 27.5 µM (inactive); in assay [2], 18.4 µM; in assay [3], 38.5 µM (inactive); in assay [4] it was 23.1 µM (inactive); in [5], 20.2 µM (inactive); in assay [6] it was 16.2 µM (inactive). Also, the GI50 is 21.4 µM (inactive) in assay [7]; 18.9 µM (inactive) in assay [8]; 25.9 µM (inactive) in [9]; 20.6 µM (inactive) in assay [10]; 19.8 µM (inactive) in [11]; 14.2 µM (inactive) in assay [12]. Moreover, the GI50 in assay [13] is 15.7 µM (inactive); in [14] it was 12.6 µM (inactive); in [15], 17.4 µM (inactive); in assay [16], 18 µM (inactive); in assay [17], 18.5 µM (inactive); in assay [18], 18.5 µM (inactive). For the same compound, in assay [19], the GI50 is 23.3 µM (inactive).

Take `COc1ccc(-c2cc(-c3ccco3)c(C#N)c(=S)n2C2OC(COC(C)=O)C(OC(C)=O)C(OC(C)=O)C2OC(C)=O)cc1` (configuration not stated): the GI50 in assay [1] is > 10 µM (inactive); in [2] it was 31.6 µM; in assay [3], 4.07 µM (inactive); in [4], 23.6 µM (inactive); in [6], 3.24 µM (inactive); in assay [7], 3.28 µM (inactive). Besides, the GI50 in [8] was 4.47 µM (inactive); in assay [9], 4.02 µM (inactive); in assay [10] it was 6.19 µM (inactive); in [11], 9.71 µM (inactive); in assay [12], 5.7 µM (inactive); in [13], 2.54 µM (inactive). Also, the GI50 in [14] is 5.27 µM (inactive); in assay [15], 4.56 µM (inactive); in assay [16], 10.1 µM (inactive); in assay [17] it was 3.98 µM (inactive); in assay [18] it was 7.71 µM (inactive); in assay [19], 12.7 µM (inactive).

Regarding `C[C@@H]1CCC2[C@@H](C)[C@@H](OCCO[C@H]3OC4O[C@@]5(C)CCC6[C@H](C)CCC([C@H]3C)[C@@]46OO5)OC3O[C@@]4(C)CCC1[C@]32OO4` (some centres not stated), the GI50 is 0.0345 µM (active) in [1]; 0.0238 µM in [2]; 0.0174 µM (active) in assay [3]; 0.0312 µM (active) in assay [4]; 0.292 µM (active) in assay [5]; 0.05 µM (active) in assay [6]. Besides, the GI50 in [7] is 0.361 µM (active); in assay [8] it was 2.21 µM (inactive); in assay [9] it was 2.64 µM (inactive); in assay [10], 0.0537 µM (active); in assay [11], 0.115 µM (active); in assay [12] it was 0.289 µM (active). In addition, the GI50 in assay [13] was 0.0361 µM (active); in assay [14], 0.379 µM (active); in [15] it was 0.0689 µM (active); in assay [16] it was 0.541 µM (active); in assay [17], 0.0583 µM (active); in assay [18], 0.239 µM (active). Further, in assay [19], the GI50 is 0.241 µM (active).

Turning to `O=c1ccs[nH]1`, the GI50 in assay [1] is 2.54 µM (inactive); in [2], 11.6 µM; in [3], 12.9 µM (inactive); in assay [4], 8.36 µM (inactive); in assay [5], 28.3 µM (inactive); in assay [6] it was 11.2 µM (inactive). Besides, the GI50 in [7] was 6.15 µM (inactive); in assay [8], 14.7 µM (inactive); in assay [9] it was 16.7 µM (inactive); in assay [10] it was 4.06 µM (inactive); in assay [11], 3.8 µM (inactive); in assay [12], 51.1 µM (inactive). Moreover, the GI50 is 16 µM (inactive) in assay [13]; 9.89 µM (inactive) in [14]; 0.42 µM (active) in assay [15]; 11.1 µM (inactive) in [16]; 3.13 µM (inactive) in assay [17]; 13.6 µM (inactive) in assay [18]. Moreover, in [19], the GI50 is 17.7 µM (inactive).

In the case of `CC(=O)Nc1nc(Cl)cc(NCC2(CO)CCC2)n1`, the GI50 in assay [1] was > 100 µM (inactive); in [2], over 100 µM; in assay [3], > 100 µM (inactive); in assay [4], > 100 µM (inactive); in assay [5], > 100 µM (inactive); in assay [6], > 100 µM (inactive). In addition, the GI50 in assay [7], in assay [8], in assay [9], in [10], in [11] and in [12] was > 100 µM (inactive) in each case. Further, the GI50 in [13], in assay [14], in [15], in assay [16], in assay [17] and in [18] was > 100 µM (inactive) in each case. The GI50 in assay [19] was > 100 µM (inactive).

Consider `COc1cc(C2C(Cl)C(=O)N2c2c(C)n(C)n(-c3ccccc3)c2=O)ccc1O` (configuration not stated), for which the GI50 is 12 µM (inactive) in [1]; 28.8 µM (inactive) in assay [3]; 13.2 µM (inactive) in [4]; 20.3 µM (inactive) in [5]; 17.7 µM (inactive) in assay [6]; 11.9 µM (inactive) in assay [7]. Moreover, the GI50 in assay [8] was 22.1 µM (inactive); in assay [9], 21.3 µM (inactive); in assay [10] it was 15 µM (inactive); in assay [11], 14.7 µM (inactive); in [12], 22.3 µM (inactive); in assay [13], 16.5 µM (inactive). Further, the GI50 in assay [14] is 15.7 µM (inactive); in assay [15], 13.6 µM (inactive); in [16], 19.1 µM (inactive); in assay [17], 23.3 µM (inactive); in [18] it was 16.4 µM (inactive); in [19] it was 30.3 µM (inactive).

Take `COC(=O)C(I(OS(=O)(=O)c1ccc(C)cc1)c1ccccc1)=P(c1ccccc1)(c1ccccc1)c1ccccc1`: the GI50 in assay [1] is 19.4 µM (inactive); in assay [2], 35.3 µM; in assay [3] it was 18.9 µM (inactive); in assay [4] it was 30.3 µM (inactive); in assay [5] it was 18.2 µM (inactive); in [6], 20.6 µM (inactive). Besides, the GI50 in assay [7] was 12.4 µM (inactive); in assay [8] it was 30.1 µM (inactive); in assay [9], 14.7 µM (inactive); in [11] it was 16.8 µM (inactive); in assay [12], 8.39 µM (inactive); in assay [13], 13.7 µM (inactive). Besides, the GI50 was 15.8 µM (inactive) in [14]; 13 µM (inactive) in assay [15]; 43.2 µM (inactive) in assay [16]; 15.1 µM (inactive) in assay [17]; 18 µM (inactive) in [18]; 64 µM (inactive) in assay [19].

(Values after ChEMBL document CHEMBL1201862, “PubChem BioAssay data set” (2004).)
